# Legend:
# NCI-H2122 cells = experiment: Cell viability, NCI-H2122 cells with SLC7A11 knock-out and/or SLC25A45 over-expression; assay type: cell-based, human; conditions: for effect of SLC7A11 knock-out and SLC25A45 over-expression on cell viability under treatment: SLC7A11 knock-out or SLC25A45 over-expression vs wild type
# Method: (§1) Cell viability was assayed using a modified manufacturer's protocol for CellTiter-Glo® (Promega #G7573). Cells were seeded at a density of 2000 cells per well in a 96 well black, clear bottom plate (Corning #89091-012) in 100 uL total media per well. The following day different concentrations of compounds at various doses were printed in triplicate in a random well format using the Tecan D300e Digital Dispenser. After 72 hours, 60 μL of a 1:3 solution of CellTiterGlo reagent in 1×PBS (Corning #01018002) was added per well and allowed to incubate at RT for 10 mins. Luminescence was measured with an integration time of 0.1 s using Envision Microplates Reader (PERKIN ELMER #2105-0010). Biological replicates were averaged and normalized to vehicle control. Dose curves were generated using Graphpad Prism.
# [1] = test system: SLC7A11 knock-out LU99 cells; experiment: CellTiter-Glo cell viability, SLC7A11 knock-out LU99 cells vs LacZ control; assay type: cell-based, human
# Method: as §1
# [2] = test system: LU99 cells with ectopic expression of FAM3B; experiment: CellTiter-Glo cell viability, LU99 cells with ectopic expression of FAM3B; assay type: cell-based, human
# Method: as §1
# LU99 cells = experiment: CellTiter-Glo cell viability, LU99 wild type cells; assay type: cell-based; conditions: Homo sapiens, Lu-99, read-out: IC50 (percent viability)
# Method: as §1
# [3] = test system: LU99 cells over-expressing SLC25A45; experiment: CellTiter-Glo cell viability, LU99 cells over-expressing SLC25A45; assay type: cell-based; conditions: Homo sapiens, Lu-99, SLC25A45 overexpression
# Method: as §1
# 500 cancer cell lines = experiment: PRISM multiplex cancer cell line viability screen; assay type: cell-based, human; conditions: 5,000 small molecules against 500 cancer cell lines
# Method: Parental cell lines were obtained from the Cancer Cell Line Encyclopedia (CCLE) project. PRISM cell line barcoding, pooling, and screening was performed as previously described with several improvements to the original method. First, the lentiviral vector was modified to encode the unique barcode identifier at the end of the puromycin resistance gene. This enables barcodes to be detected using a variant of the mRNA capture and Luminex detection method developed for the L1000 gene expression assay. Second, a set of ten inert barcodes were spiked-in to each well of each plate after cell lysis to control for variation in PCR amplification as detailed below.
# Luminex technology produced .Ixb files containing data for each Luminex bead observed during detection. These .Ixb files were processed to compute Median Fluorescence Intensity (MFI) values, calculated as the median of the values obtained for all beads corresponding to a single PRISM barcode. […]
# For each cell line on each plate, the distribution of MFI values observed for the DMSO-treated negative controls was compared to that of the positive controls using a robust form of the Strictly Standardized Mean Difference (SSMD*)’. Specifically, SSMD* was calculated as: […]
# Cell viability was calculated as the ratio of nMFI to the median of the nMFI from the DMSO-treated negative controls for each cell line on each plate. […]
# [4] = test system: multiple solid tumor and hematopoietic cancer types; conditions: monotherapy, phase 1 clinical trials; cited from earlier work
smiles,measurement,setting,value
"O=C(Cc1ccccc1)Nc1nnc(CCSCCc2nnc(NC(=O)Cc3ccccc3)s2)s1 [BPTES, Bis-2-(5-phenylacetamido-1,3,4-thiadiazol-2-yl)ethyl sulfide]",effect of SLC7A11 knock-out and SLC25A45 over-expression on cell viability under treatment,NCI-H2122 cells,increase cell viability
same,rescue from inhibitor-induced cell killing by knock-out of SLC7A11,[1],rescued sensitivity
O=C(Cc1cccc(OC(F)(F)F)c1)Nc1ccc(CCCCc2nnc(NC(=O)Cc3ccccn3)[se]2)nn1 [Glutaminase IN 1],effect of SLC7A11 knock-out and SLC25A45 over-expression on cell viability under treatment,NCI-H2122 cells,increase cell viability
same,rescue from inhibitor-induced cell killing by knock-out of SLC7A11,[1],rescued sensitivity
CC(=O)O[C@H]1C(=O)[C@@]2(C)[C@H]([C@H](OC(=O)c3ccccc3)[C@]3(O)C[C@H](OC(=O)[C@H](O)[C@@H](NC(=O)c4ccccc4)c4ccccc4)C(C)=C1C3(C)C)[C@]1(OC(C)=O)CO[C@@H]1C[C@@H]2O [Paclitaxel],change in effects on cell death by ectopic FAM3B expression,[2]; ectopic FAM3B vs wild type,no change
same,effect of SLC7A11 knock-out and SLC25A45 over-expression on cell viability under treatment,NCI-H2122 cells,no significant rescue of sensitivity
same,IC50,LU99 cells,2.2 nM
O=C(Cc1cccc(OC(F)(F)F)c1)Nc1ccc(CCCCc2nnc(NC(=O)Cc3ccccn3)s2)nn1 [Telaglenastat],IC50,[3],22 nM
same,IC50,"[2]; Homo sapiens, Lu-99, ectopic expression of FAM3B",> 10000 nM
same,effect of SLC7A11 knock-out and SLC25A45 over-expression on cell viability under treatment,NCI-H2122 cells,increase cell viability
same,sensitivity of cells with combined SLC7A11 knock-out and SLC25A45 over-expression,NCI-H2122 cells; combination of SLC7A11 knock-out and SLC25A45 over-expression,almost completely resistant
same,cell line killing in PRISM screen,500 cancer cell lines,selectively kill cell lines across a broad range of lineages
same,clinical response,[4],only occasional responses
same,rescue from inhibitor-induced cell killing by knock-out of SLC7A11,[1],rescued
same,IC50,LU99 cells,1.2 nM
CN(C)c1ccc(C2Nc3ccc4ccccc4c3C3=C2C(=O)CC(C)(C)C3)cc1Br (centres unmarked) [compound 968],effect of SLC7A11 knock-out and SLC25A45 over-expression on cell viability under treatment,NCI-H2122 cells,no significant rescue of sensitivity
same,rescue from inhibitor-induced cell killing by knock-out of SLC7A11,[1],not rescued

# Reference: patent US20230151431A1, “METHODS AND COMPOSITIONS FOR IDENTIFYING AND TREATING GLUTAMINASE INHIBITOR-SENSITIVE CANCERS” (DANA-FARBER CANCER INSTITUTE, INC., priority 2020, published 2023)
